Legend:
Assay in all cases: relative viability (nuclei count vs DMSO), 5 days (fraction); higher = more cells survive
[1] = compound: CS(=O)(=O)CCNCc1ccc(-c2ccc3ncnc(Nc4ccc(OCc5cccc(F)c5)c(Cl)c4)c3c2)o1 [Lapatinib] + COc1cc2c(Oc3ccc(NC(=O)C4(C(=O)Nc5ccc(F)cc5)CC4)cc3F)ccnc2cc1OCCCN1CCOCC1 [Foretinib] (partner 0.25 µM)
How it was run: (§1)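 After 5 days of treatment, lung cancer cells in 1536-well plates were fixed and stained in a single step (final 0.05% Triton X-100, 1% formaldehyde, 1 ug/ml Hoechst) and their nuclei counted on 4× images. Treatment had been applied by pin tool the day after seeding as one drug alone or as a fixed anchor-drug dose with five library-drug doses (not always all listed) in √10 steps. Relative viability is the nuclei count of treated wells divided by that of vehicle wells, and values are medians of duplicate plates.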

[2] = compound: CC1=NC=CC(=C1)C2=CC=C(C=C2)CC(=O)NC3=CC=C(C=C3)C4=CN=CC=C4 [Wnt-C59] + CCNC(=O)c1noc(-c2cc(C(C)C)c(O)cc2O)c1-c1ccc(CN2CCOCC2)cc1 [Luminespib] (partner 0.01 µM)
How it was run: as §1

[3] = compound: CC1=NC=CC(=C1)C2=CC=C(C=C2)CC(=O)NC3=CC=C(C=C3)C4=CN=CC=C4 [Wnt-C59] + NC(=O)Nc1cc(-c2cccc(F)c2)sc1C(=O)N[C@H]1CCCNC1 [AZD7762] (partner 0.2 µM)
How it was run: as §1

[4] = compound: CS(=O)(=O)CCNCc1ccc(-c2ccc3ncnc(Nc4ccc(OCc5cccc(F)c5)c(Cl)c4)c3c2)o1 [Lapatinib] + N=C(N)NC(=N)NCCc1ccccc1 [Phenformin] (partner 250 µM)
How it was run: as §1

Cell Line	relative viability ([1]; first compound 0.02 µM)	relative viability ([1]; first compound 0.06325 µM)	relative viability ([1]; first compound 0.2 µM)	relative viability ([1]; first compound 0.6325 µM)	relative viability ([1]; first compound 2 µM)	relative viability ([2]; first compound 0.001 µM)	relative viability ([2]; first compound 0.01 µM)	relative viability ([2]; first compound 0.03162 µM)	relative viability ([2]; first compound 0.1 µM)	relative viability ([3]; first compound 0.001 µM)	relative viability ([3]; first compound 0.01 µM)	relative viability ([3]; first compound 0.03162 µM)	relative viability ([3]; first compound 0.1 µM)	relative viability ([4]; first compound 0.06325 µM)	relative viability ([4]; first compound 0.2 µM)	relative viability ([4]; first compound 0.6325 µM)	relative viability ([4]; first compound 2 µM)	relative viability ([4]; first compound 0.02 µM)
IA-LM	1.08	1.13	1.36	1.03	1.16													
LC-2-ad		0.655	0.872	0.769	0.567	1.13	0.97	1.06	0.975	0.851	0.829	0.882	0.865	0.438	0.551	0.478	0.519	
LCLC-97TM1			0.843	0.973	1.02	0.756	0.763	0.616	0.742	0.287	0.303	0.362	0.206		0.462	0.407	0.471	
LCLC-103H	0.849	0.744	0.753	0.835	0.712	0.845	0.919	0.977	0.973	0.798	0.712	0.824	0.775	0.271	0.316	0.363	0.382	0.276
LK-2			1.39	1.42	1.07	0.199	0.159	0.174	0.213	0.417	0.407	0.486	0.461		0.606	0.663	0.419	
LOU-NH91	0.902	0.815	0.689	0.604	0.498	0.375	0.284	0.298	0.348	0.765	0.67	0.778	0.761	0.533	0.479	0.533	0.433	0.463
LU99A	0.784	0.72	0.74	0.836	0.815	0.249	0.269	0.249	0.263	0.374	0.491	0.338	0.313	0.712	0.743	0.866	0.792	0.379
LXF-289	0.996	0.953	0.967	0.948	0.851	0.607	0.666	0.618	0.712	1.06	1.07	1.09	1.07	0.482	0.509	0.488	0.52	0.142
NCI-H520	0.891	0.672	0.855	1.01	0.67	0.212	0.212	0.231	0.212					0.596	0.542	0.653	0.638	0.516
NCI-H522						1.63	1.2	0.979	1.13	0.857	0.863	0.877	0.637	0.557	0.554	0.674	0.546	
NCI-H661	0.972	0.926	0.856	0.666	0.62	0.904	0.911	0.972	0.912					0.263	0.273	0.265	0.268	0.273
NCI-H1299	1.1	0.885	1.12	1.1	1.05													
NCI-H1563	0.861	0.881	0.953	0.831	0.857	0.498	0.539	0.565	0.528					0.645	0.69	0.76	0.688	0.626
NCI-H1623	0.702	0.637	0.634	0.785	0.277	0.594	0.413	0.544	0.481					0.494		0.659	0.261	0.546
NCI-H1648										0.565	0.797	0.53	0.622					
NCI-H1650	1	1.08	1.03	1.01	0.684	0.223	0.197	0.203	0.214					0.313	0.461	0.31	0.307	0.442
NCI-H1703	0.305	0.347	0.296	0.299	0.388					0.158	0.107	0.135	0.129					
NCI-H1792						0.515	0.388		0.656	0.659	0.676	0.701	0.854		0.219	0.207	0.289	
NCI-H2009	1.17	1.25	1.26	1.22	1.17	1.04	0.976	1.07	0.997					0.484	0.507	0.513	0.457	0.528
NCI-H2023			0.685	0.437	0.357	0.775	0.757	0.785	0.702						0.417	0.429	0.307	0.395
NCI-H2228	0.837	0.714	0.96	0.826	0.701	0.173	0.149	0.223	0.197					0.25	0.245	0.292	0.325	0.33
SK-LU-1	0.773	0.789	0.857	0.8	0.883	0.211	0.219	0.184	0.206					0.484	0.547	0.674	0.512	0.464
SK-MES-1	0.826	0.499	0.969	0.908	0.516	0.88	0.792	0.78	0.739					0.684	0.684	0.563	0.306	0.62
SW 1573	1.04	0.601	0.86	0.922	0.886	0.227	0.398	0.37	0.177					0.338	0.346	0.347	0.354	0.398
